# According to patent US20260041679A1, “METHOD OF TREATING HYPERTENSION WITH THE ALDOSTERONE SYNTHASE INHIBITOR BAXDROSTAT” (CINCOR PHARMA, INC., priority 2022, published 2026):
# Read-outs that look alike come from different tables or passages of the source. Marks after values point to notes of the source that are not given here.
# Columns and labels:
# [1] = Pharmacokinetics in subjects with varying degrees of renal function (Example 4); type: in vivo, human; conditions: for half-life / Tmax / AUC(0-inf) / AUC(0-t) / Cmax / Vd/F: human, plasma, oral, 10 mg; for AUC(0-inf): read-out: AUC0-inf, mean (SD); for AUC(0-t): read-out: AUC0-last, mean (SD); for Cmax: read-out: Cmax, mean (SD); for Vd/F: read-out: Vz/F, mean (SD)
# Experimental: This phase 1, open-label, single-dose, parallel-group study was designed in accordance with the FDA guidance for the design and analysis of studies that assess the influence of impaired renal function on PK. Subjects were enrolled into three renal function groups defined based on eGFR calculated using the Chronic Kidney Disease Epidemiology Collaboration equation as follows: […]
# Control(normal renal function or mild renal impairment:eGFR≥60 mL/min) • Moderate to severe renal impairment (eGFR 15 to 59 mL/min) • Kidney failure (eGFR<15 mL/min, including subjects on dialysis)
# All subjects received a single 10 mg dose of baxdrostat in an open-label manner. […] All subjects were required to fast for a minimum of 10 hours prior to baxdrostat administration. They were then dosed at 8:00 AM (±2 hours) with two 5 mg tablets administered with approximately 240 mL of water. Subjects continued fasting for a minimum of 4 hours after dosing. No other medications were permitted within 2 hours prior to dosing and for 2 hours after dosing with baxdrostat. Subjects on dialysis received the study drug on a non-dialysis day. Blood and urine sample collection for PK analysis continued for 7 days and was proceeded by a follow-up phone call 3±1 days after clinic discharge.
# Plasma and urine samples were analyzed to measure concentrations of baxdrostat and its primary metabolite (baxdrostat-M) using a validated LC-MS/MS method. “Baxdrostat-M” as used herein refers a compound having the following structure:
# Blood and urine samples were collected prior to and after dosing for measurement of plasma and urine baxdrostat and baxdrostat-M concentrations to characterize maximum observed plasma concentration (Cmax), time to Cmax (Tmax), AUC0-last, and AUC0-inf for baxdrostat and baxdrostat-M. The t1/2, CL/F, and V/F were calculated for plasma baxdrostat only. Urine PK parameters included the cumulative amount of baxdrostat and baxdrostat-M excreted in urine (Ae), renal clearance (CLR) of baxdrostat and baxdrostat-M, and fraction of dose excreted renally (Fe) for baxdrostat.
# [2] = Pharmacokinetics in subjects with moderate hepatic impairment vs normal hepatic function (Example 5); type: in vivo, human; conditions: for CL renal / Cmax / AUC(0-inf) / Tmax: human, oral, 10 mg; for CL renal: plasma and urine, read-out: CLR, geometric mean (% CV) (converted); for CL renal / Cmax / AUC(0-inf) / Tmax / CL/F, geometric mean (% CV): single 10 mg; for Cmax / AUC(0-inf) / Tmax: plasma; for Cmax: read-out: Cmax, geometric mean (% CV); for AUC(0-inf): read-out: AUC(0-inf), geometric mean (% CV); for Tmax: read-out: Tmax, arithmetic mean (SD)
# Experimental: Subjects with moderate hepatic impairment (Child-Pugh Category B, n=10) and healthy controls (n=10) were each given a single 10 mg oral dose of baxdrostat. Subjects were matched by age, sex, body mass index, race, and smoking status. Serial blood and urine samples were collected to determine plasma and urine concentrations of baxdrostat for 7 days postdose. Safety was assessed based on adverse events, clinical laboratory evaluations, vital signs, electrocardiogram and physical examinations.
# [3] = control eGFR ≥60 mL/min, single 10 mg
# [4] = kidney failure eGFR <15 mL/min, single 10 mg
# [5] = moderate to severe renal impairment eGFR 15-59 mL/min, single 10 mg
# [6] = moderate hepatic impairment vs normal hepatic function
smiles,measurement,setting,value
"CCC(=O)N[C@@H]1CCCc2c(-c3ccc4c(c3)CCC(=O)N4C)cncc21 [baxdrostat, (R)—N-(4-(1-methyl-2-oxo-1,2,3,4-tetrahydroquinolin-6-yl)-5,6,7,8-tetrahydroisoquinolin-8-yl) propionamide]",recovered unchanged in the urine,[1]; control and moderate to severe renal impairment groups,Approximately 12%
same,"CL/F, mean (SD)",[1]; [3],3.06 (0.9) L/h
same,"Fe (urine), mean (CV %)",[1]; [3],12.53 (38.1) %
same,half-life,"[1]; across renal function groups, read-out: average half-life",30 to 42 h
same,Tmax,"[1]; all renal function groups, single 10 mg, read-out: median Tmax",≤ 1.5 h
same,AUC(0-inf),[1]; [3],3530 ng·h/mL
same,AUC(0-t),[1]; [3],3380 ng·h/mL
same,Cmax,[1]; [3],108 ng/mL
same,Tmax,"[1]; control eGFR ≥60 mL/min, single 10 mg, read-out: Tmax, mean (SD)",2.1 h
same,Vd/F,[1]; [3],146 L
same,half-life,"[1]; control eGFR ≥60 mL/min, single 10 mg, read-out: t1/2, mean (SD) (converted)",35.6 h
same,AUC(0-inf),[1]; [4],2660 ng·h/mL
same,AUC(0-t),[1]; [4],2570 ng·h/mL
same,Cmax,[1]; [4],96 ng/mL
same,Tmax,"[1]; kidney failure eGFR <15 mL/min, single 10 mg, read-out: Tmax, mean (SD)",1.63 h
same,Vd/F,[1]; [4],200 L
same,AUC(0-inf),[1]; [5],4340 ng·h/mL
same,AUC(0-t),[1]; [5],4010 ng·h/mL
same,Cmax,[1]; [5],110 ng/mL
same,Tmax,"[1]; moderate to severe renal impairment eGFR 15-59 mL/min, single 10 mg, read-out: Tmax, mean (SD)",1.82 h
same,Vd/F,[1]; [5],142 L
same,half-life,"[1]; moderate to severe renal impairment eGFR 15-59 mL/min, single 10 mg, read-out: t1/2, mean (SD) (converted)",42.1 h
same,"CL/F, mean (SD)",[1]; [4],5.07 (2.9) L/h
same,"Fe (urine), mean (CV %)",[1]; [4],0.91 (60.7)* %
same,"t1/2, mean (SD)",[1]; [4],29.70 (10.5) h
same,renal excretion,[1]; kidney failure group,minimal renal excretion
same,"CL/F, mean (SD)",[1]; [5],2.60 (1.0) L/h
same,"Fe (urine), mean (CV %)",[1]; [5],11.81 (26.0) %
same,"effect of renal impairment on Cmax, AUC, half-life, apparent plasma clearance, renal clearance",[1]; pairwise comparisons versus control,no meaningful effect
same,CL renal,[2]; moderate hepatic impairment,4.98 mL/min
same,CL renal,[2]; normal hepatic function,6.02 mL/min
same,Cmax,[2]; moderate hepatic impairment (n = 10),119 ng/mL
same,AUC(0-inf),[2]; moderate hepatic impairment,3570 ng·h/mL
same,Tmax,[2]; moderate hepatic impairment,2.15 h
same,Cmax,[2]; normal hepatic function (n = 10),104 ng/mL
same,AUC(0-inf),[2]; normal hepatic function,3780 ng·h/mL
same,Tmax,[2]; normal hepatic function,2.55 h
same,"AUC(0-inf), ratio of GLSM (90% CI)",[2]; [6],"0.95 (0.73, 1.23)"
same,"Cmax, ratio of GLSM (90% CI)",[2]; [6],"1.1 (0.97, 1.32)"
same,"CL/F, geometric mean (% CV)",[2]; moderate hepatic impairment,2.80 (30.1) L/hr
same,"CL/F, geometric mean (% CV)",[2]; normal hepatic function,2.64 (24.7) L/hr
